We go through five compounds from patent US8765749B2, “1,6-disubstituted indole compounds as protein kinase inhibitors” (Korea Institute of Science and Technology, priority 2009, dated 2014).

Some results are limits rather than exact numbers.

One data set deals with A375P cells. The experiment in a line: Inhibition activity against proliferation of A375P melanoma cells (MTT assay). Particulars: Homo sapiens, read-out: Inhibition activity against proliferation of A375P cells (GI50, μM).
For the next data set, the system named is SK-MEL28 cells. Nature of the data set: Inhibition activity against proliferation of SK-MEL28 melanoma cells (MTT assay). Particulars: Homo sapiens, SK-MEL-28, read-out: Inhibition activity against proliferation of SK-MEL28 cells (GI50, μM). In general terms: Tetrazolium dyes change colour on reduction, which living cells bring about.
The next data set deals with T1, B-Raf (V600E) (Homo sapiens, UniProt P15056, V600E).
T1 construct: purchased Cell Signaling #7663
T1 sequence (P15056 whole entry V600E): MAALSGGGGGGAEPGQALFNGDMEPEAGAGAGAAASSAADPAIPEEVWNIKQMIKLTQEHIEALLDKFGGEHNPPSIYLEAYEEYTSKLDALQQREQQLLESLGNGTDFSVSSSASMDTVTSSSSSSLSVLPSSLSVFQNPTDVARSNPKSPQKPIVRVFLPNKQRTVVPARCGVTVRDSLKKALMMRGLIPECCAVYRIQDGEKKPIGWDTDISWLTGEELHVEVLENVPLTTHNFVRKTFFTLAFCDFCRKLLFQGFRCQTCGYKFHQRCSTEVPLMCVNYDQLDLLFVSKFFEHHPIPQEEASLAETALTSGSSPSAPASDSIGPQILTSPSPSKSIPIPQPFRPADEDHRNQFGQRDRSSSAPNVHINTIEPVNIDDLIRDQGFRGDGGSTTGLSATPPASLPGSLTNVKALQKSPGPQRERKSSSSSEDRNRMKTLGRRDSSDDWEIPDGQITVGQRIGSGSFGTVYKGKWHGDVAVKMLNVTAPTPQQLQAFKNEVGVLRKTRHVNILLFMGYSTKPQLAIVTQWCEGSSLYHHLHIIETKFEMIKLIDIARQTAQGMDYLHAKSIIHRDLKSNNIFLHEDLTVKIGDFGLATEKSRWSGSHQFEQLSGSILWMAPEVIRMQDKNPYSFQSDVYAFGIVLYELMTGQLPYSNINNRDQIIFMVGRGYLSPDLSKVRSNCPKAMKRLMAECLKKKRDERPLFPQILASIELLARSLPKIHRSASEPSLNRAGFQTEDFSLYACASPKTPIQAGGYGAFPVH
Nature of the data set: Measurement of B-Raf-V600E kinase activity (MEK1 (K97R) phosphorylation, [γ-32P] ATP). The class given is biochemical. Particulars: read-out: B-Raf kinase inhibition activity (% inhibition at 1 μM). The procedure: (1) Activation of MEK1 (K97R) by B-Raf
Base reaction buffer (20 mM Hepes (pH 7.5), 10 mM MgCl2, 1 mM EGTA, 0.02% Brij35, 0.02 mg/mL BSA, 0.1 mM Na3VO, 2 mM DTT, 1% DMSO) was prepared. B-Raf (V600E) (Cell Signaling #7663) diluted to 30 nM was added at a final concentration of 10 nM, and MEK1 (K97R) (Upstate #14-737) diluted to 3 μM was added at a final concentration of 1 μM. The test compound was prepared at a concentration of 10 mM in dimethylsulfoxide (DMSO) and diluted to various concentrations. The final volume was adjusted to 20 μL and, after completely mixing, the mixture was allowed to react at room temperature for 30 minutes.
(2) Phosphorylation of MEK1 (K97R)
[γ-32P] ATP (100 μCi/container) diluted to 1/10 was added in 10 μL aliquots. After completely mixing, the mixture was allowed to react at room temperature for 2 hours. After placing P81 paper in a scintillation vial, spotting was performed using 30 μL of the reaction mixture. After washing 3 times with 0.75% phosphoric acid for 10 minutes and washing once with acetone for 10 minutes, 5 mL of scintillation cocktail was added to the scintillation vial holding the washed P81 paper. Signals were recorded using a scintillation counter.

The subject of another data set is A375 melanoma cells. Particulars: read-out: proliferation of A375 melanoma cells IC50; cited from earlier work.
The conditions of data set [1]: cited from earlier work.

As a reminder, the inhibition is how much of the control response was suppressed. Regarding `COc1ccccc1NC(=O)Nc1ccc(C)c(-c2ccc3ccn(-c4cc(N)ncn4)c3c2)c1` [Example 21, 1-(3-(1-(6-aminopyrimidin-4-yl)-1H-indol-6-yl)-4-methylphenyl)-3-(2-methoxyphenyl)urea], the GI50 with A375P cells and in the data set with SK-MEL28 cells was under 10 µM each time. Further, the inhibition at 1 µM at B-Raf (V600E) is over 50%.

In the case of `CNc1cc(-n2ccc3ccc(-c4cccc(NC(=O)Nc5ccccc5OC)c4)cc32)ncn1` [Example 22, 1-(2-methoxyphenyl)-3-(3-(1-(6-(methylamino)pyrimidin-4-yl)-1H-indol-6-yl)phenyl)urea], the GI50 in the data set with A375P cells and in the data set with SK-MEL28 cells was under 10 µM in each case. Besides, on B-Raf (V600E), the inhibition at 1 µM is over 50%.

On to `COc1ccccc1NC(=O)Nc1cccc(-c2ccc3ccn(-c4cc(NC(=O)C5CC5)ncn4)c3c2)c1` [Example 26, N-(6-(6-(3-(3-(2-methoxyphenyl)ureido)phenyl)-1H-indol-1-yl)pyrimidin-4-yl)cyclopropanecarboxamide], for which the GI50 in the data set with A375P cells and in the data set with SK-MEL28 cells was under 10 µM each time. Also, on B-Raf (V600E), the inhibition at 1 µM was over 50%.

As to `CCCS(=O)(=O)Nc1ccc(F)c(C(=O)c2c[nH]c3ncc(Cl)cc23)c1F` [PLX4720], the IC50 with A375 melanoma cells is 0.5 µM.

`CNC(=O)c1cc(Oc2ccc(NC(=O)Nc3ccc(Cl)c(C(F)(F)F)c3)cc2)ccn1` [sorafenib, Sorafenib]: the skin toxicity entry in data set [1] (600 mg (twice a day)) was “grade 3 skin toxicity”. The “maximum allowed administration dose” value in data set [1] (clinical trial phase II, twice a day) is given as 400 mg.
